Assay results as given in patent US8435990B2, “Dihydropyrimidone amides as P2X7 modulators” (Roche Palo Alto LLC, priority 2009, dated 2013).

target: T1, human P2X7 (Homo sapiens, UniProt Q99572); assay: P2X7 modulator pIC50 of Table 1 (assay not given; Intracellular Calcium Flux (FLIPR) Assay assumed); format: cell-based
T1 construct: 1321N1 cells stably expressing the full length human P2X7 gene (1321N1-hP2X7)
T1 sequence (Q99572 1-595): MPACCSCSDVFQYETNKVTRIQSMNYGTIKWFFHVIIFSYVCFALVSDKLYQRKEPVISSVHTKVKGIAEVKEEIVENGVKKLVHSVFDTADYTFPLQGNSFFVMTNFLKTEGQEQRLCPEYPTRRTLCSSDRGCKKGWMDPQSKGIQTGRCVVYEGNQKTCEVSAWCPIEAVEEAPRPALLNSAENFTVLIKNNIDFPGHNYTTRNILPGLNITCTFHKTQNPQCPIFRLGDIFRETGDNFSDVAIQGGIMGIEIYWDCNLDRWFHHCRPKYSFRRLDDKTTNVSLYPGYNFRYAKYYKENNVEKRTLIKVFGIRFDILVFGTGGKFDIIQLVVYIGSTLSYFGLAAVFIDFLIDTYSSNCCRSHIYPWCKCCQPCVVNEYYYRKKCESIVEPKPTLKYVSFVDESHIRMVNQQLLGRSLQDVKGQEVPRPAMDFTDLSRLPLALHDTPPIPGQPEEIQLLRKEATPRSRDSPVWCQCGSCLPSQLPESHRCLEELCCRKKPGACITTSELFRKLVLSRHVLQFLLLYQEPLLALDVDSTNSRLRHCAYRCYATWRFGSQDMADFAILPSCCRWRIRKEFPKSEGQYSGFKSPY
Method: Intracellular Calcium Flux (FLIPR) Assay
Stock solutions of compounds were prepared from powders as a 10 mM DMSO stock solution. These solutions were stored at RT during the two week period of these experiments to prevent freeze-thaw of the DMSO stocks. The DMSO stocks were added to the appropriate assay buffer at a concentration of 10 μM, and then diluted serially to the final concentrations that were tested. No observable precipitate was formed at any time during this process. The aqueous solutions of compounds as well as ATP (Sigma A7699) and BzATP (Sigma B6396) were prepared fresh for each day of experiment.
1321N1 cells stably expressing the full length human P2X7 gene (1321N1-hP2X7) and HEK293 cells stably expressing the full length rat P2X7 gene (HEK293-rP2X7) were obtained from the Roche Cell Culture Facility. 1321N1-hP2X7 cells were grown in Dulbecco's Modified Eagle's Medium (DMEM) high glucose supplemented with 10% FBS and 250 μg/mL G418. HEK293-rP2X7 cells were grown in DMEM/F-12 supplemented with 10% FBS, 1 mM CaCl2, 2 mM MgCl2, 2 mM L-Glutamine and 500 μg/ml G418. Cells were split such that they never became >70% confluent.
On the day prior to the experiment, 1321N1-hP2X7 or HEK293-rP2X7 cells were released into suspension with calcium-free PBS+Versene and washed by centrifugation with calcium-free PBS to remove the Versene. Cells were resuspended in growth medium at a density of 2.5×10^5 cells/mL and seeded into black walled, clear bottom 96 well plates (50,000 cells/well) approximately 18 hr prior to intracellular calcium flux experiments.
On the day of the experiment, plates were washed with FLIPR buffer (calcium- and magnesium-free Hank's Balanced Salt Solution (HBSS) supplemented with 10 mM Hepes, 2.5 mM probenecid and 2 mM calcium chloride) using a BIO-TEK 96 channel plate washer and incubated with […] fluo-3 dye at 37° C. for one hr. The dye was then removed by plate washing and the cells were allowed to equilibrate for 20 min at room temperature with antagonist or vehicle (FLIPR buffer). Agonist (100 μM BzATP final concentration for hP2X7; 5μM BzATP final concentration or rP2X7) was added online with the FLIPR and fluorescence measurements made at 1 sec intervals for 60 sec followed by 3 sec intervals for a further 4 min (5 min total). A final addition of 5 μM ionomycin was made and the maximal BzATP-evoked fluorescence normalized to the maximal ionomycin-evoked fluorescence.

SMILES | IC50
Cc1cc(F)c(-c2cccn(C)c2=O)cc1NC(=O)C1=CN(C)C(=O)N[C@H]1c1ccc(F)cc1 [Compound 70, (S)-4-(4-Fluoro-phenyl)-1-methyl-2-oxo-1,2,3,4-tetrahydro-pyrimidine-5-carboxylic acid [4-fluoro-2-methyl-5-(1-methyl-2-oxo-1,2-dihydro-pyridin-3-yl)-phenyl]-amide] | 33.1 nM
Cc1cc(-c2ccc(C)c(NC(=O)C3=CNC(=O)N[C@H]3c3ccc(F)cc3)c2)n[nH]1 [Compound 5, (S)-4-(4-Fluoro-phenyl)-2-oxo-1,2,3,4-tetrahydro-pyrimidine-5-carboxylic acid [2-methyl-5-(5-methyl-1H-pyrazol-3-yl)-phenyl]-amide] | 19.7 nM
Cc1cc(F)c(OCCO)cc1NC(=O)C1=CN(C)C(=O)N[C@H]1c1ccc(F)cc1 [Compound 16, (S)-4-(4-Fluoro-phenyl)-1-methyl-2-oxo-1,2,3,4-tetrahydro-pyrimidine-5-carboxylic acid [4-fluoro-5-(2-hydroxy-ethoxy)-2-methyl-phenyl]-amide] | 9.23 nM
Cc1ccc2[nH]c(=O)ccc2c1NC(=O)C1=CN(C)C(=O)N[C@H]1c1ccc(F)cc1 [Compound 31, (S)-4-(4-Fluoro-phenyl)-1-methyl-2-oxo-1,2,3,4-tetrahydro-pyrimidine-5-carboxylic acid (6-methyl-2-oxo-1,2-dihydro-quinolin-5-yl)-amide] | 160 nM
Cc1ccc(-c2cncc(=O)[nH]2)cc1NC(=O)C1=CN(C)C(=O)N[C@H]1c1ccc(F)cc1 [Compound 28, (S)-4-(4-Fluoro-phenyl)-1-methyl-2-oxo-1,2,3,4-tetrahydro-pyrimidine-5-carboxylic acid [2-methyl-5-(6-oxo-1,6-dihydro-pyrazin-2-yl)-phenyl]-amide] | 153 nM
Cc1ccc(=O)n(-c2ccc(C)c(NC(=O)C3=CN(C)C(=O)N[C@H]3c3ccc(F)cc3)c2)c1 [Compound 71, (S)-4-(4-Fluoro-phenyl)-1-methyl-2-oxo-1,2,3,4-tetrahydro-pyrimidine-5-carboxylic acid [2-methyl-5-(5-methyl-2-oxo-2H-pyridin-1-yl)-phenyl]-amide] | 43.2 nM
Cc1cc2cnn(CCO)c2cc1NC(=O)C1=CN(C)C(=O)N[C@H]1c1ccc(F)cc1 [Compound 42] | 14.5 nM
Cc1cc(Cl)c(OCCO)cc1NC(=O)C1=CN(C)C(=O)N[C@@H]1C1CCCCC1 [Compound 29, (R)-4-Cyclohexyl-1-methyl-2-oxo-1,2,3,4-tetrahydro-pyrimidine-5-carboxylic acid [4-chloro-5-(2-hydroxy-ethoxy)-2-methyl-phenyl]-amide] | 54.7 nM
Cc1ccc(-n2ncccc2=O)cc1NC(=O)C1=CN(C)C(=O)N[C@H]1c1ccc(F)cc1 [Compound 26] | 20 nM
Cc1ccc(-n2ccccc2=O)cc1NC(=O)C1=CN(C)C(=O)N[C@H]1c1ccc(F)cc1 [Compound 54, (S)-4-(4-Fluoro-phenyl)-1-methyl-2-oxo-1,2,3,4-tetrahydro-pyrimidine-5-carboxylic acid [2-methyl-5-(2-oxo-2H-pyridin-1-yl)-phenyl]-amide] | 21.6 nM
COC[C@@H](O)Cn1nc(-c2ccc(C)c(NC(=O)C3=CN(C)C(=O)N[C@H]3c3ccc(F)cc3)c2)cc1C [Compound 36, (S)-4-(4-Fluoro-phenyl)-1-methyl-2-oxo-1,2,3,4-tetrahydro-pyrimidine-5-carboxylic acid {5-[1-((S)-2-hydroxy-3-methoxy-propyl)-5-methyl-1H-pyrazol-3-yl]-2-methyl-phenyl}-amide] | 140 nM
Cc1ccc(-n2ncccc2=O)cc1NC(=O)C1=CN(C)C(=O)N[C@H]1c1cccc(F)c1 [Compound 49, (S)-4-(3-Fluoro-phenyl)-1-methyl-2-oxo-1,2,3,4-tetrahydro-pyrimidine-5-carboxylic acid [2-methyl-5-(6-oxo-6H-pyridazin-1-yl)-phenyl]-amide] | 105 nM
COc1cc(C)c(NC(=O)C2=CNC(=O)NC2c2ccc(F)cc2)cc1OC (stereo not shown) [Compound 1, 4-(4-Fluoro-phenyl)-2-oxo-1,2,3,4-tetrahydro-pyrimidine-5-carboxylic acid (4,5-dimethoxy-2-methyl-phenyl)-amide] | 34.7 nM
